From patent publication US20240025893A1, “PYRIMIDINE-AND NITROGEN-CONTAINING BICYCLIC COMPOUND” (Asahi Kasei Pharma Corporation, priority 2020, published 2024)

What was measured:
[1] = system: LPS-stimulated TNFα production in THP-1 cells; test: LPS-stimulated TNFα production inhibition test using human acute monocytic leukemia cell strain THP-1; type: cell-based; conditions: Homo sapiens, LPS 2.5 ng/mL, average values
Experimental: By the THP-1 assay, influence of a test compound on the TNFα production induced by LPS stimulation can be evaluated. The THP-1 cells (ATCC, Cat. TIB-202) were inoculated on a 96-well plate at a density of 1×10^5 cells/160 μL/well, a test compound was added in a volume of 20 μL, and the plate was incubated at 37° C. for 1 hour in a 5% CO2 incubator. Then, LPS in a volume of 20 μL (final concentration 2.5 ng/mL, Sigma, Cat. L2630) was added, and the plate was further incubated for 4 hours. After the incubation, the plate was centrifuged, and 100 μL of the supernatant was taken from each well, and used for evaluation of the amount of TNFα using HTRF (Cisbio, Cat. 62TNFPEB). In the measurement of the amount of TNFα, the supernatant was diluted twice with the medium, and then added to wells of a 384-well plate in a volume of 10 μL, then anti-TNFα-cryptate (5 μL), and anti-TNFα-XL665 (5 μL) were added, and the plate was left standing overnight. The fluorescence intensity ratio for the wavelengths of 620 and 665 nm (620 nm/665 nm) was measured with a microplate reader, and the amount of TNFα in the supernatant was calculated by using a calibration curve. The TNFα production suppression ratio observed with no addition of LPS was defined to be 100%, the TNFα production suppression ratio observed with no addition of the test compound was defined to be 0%, and IC50 of the test compound was calculated by using the 4-parameter logistic model of the data analysis software XLfit (ID Business Solutions Ltd.).

human IRAK-4 = human IRAK-4 (Homo sapiens (Human), UniProt Q9NWZ3); test: Measurement of human IRAK-4 inhibitory activity (TR-FRET, peptide substrate phosphorylation, 10 μM ATP); type: biochemical; conditions: 1 nM IRAK-4, 10 μM ATP, 23° C., 30 minutes; average values
Sequence of human IRAK-4 (Q9NWZ3 whole entry): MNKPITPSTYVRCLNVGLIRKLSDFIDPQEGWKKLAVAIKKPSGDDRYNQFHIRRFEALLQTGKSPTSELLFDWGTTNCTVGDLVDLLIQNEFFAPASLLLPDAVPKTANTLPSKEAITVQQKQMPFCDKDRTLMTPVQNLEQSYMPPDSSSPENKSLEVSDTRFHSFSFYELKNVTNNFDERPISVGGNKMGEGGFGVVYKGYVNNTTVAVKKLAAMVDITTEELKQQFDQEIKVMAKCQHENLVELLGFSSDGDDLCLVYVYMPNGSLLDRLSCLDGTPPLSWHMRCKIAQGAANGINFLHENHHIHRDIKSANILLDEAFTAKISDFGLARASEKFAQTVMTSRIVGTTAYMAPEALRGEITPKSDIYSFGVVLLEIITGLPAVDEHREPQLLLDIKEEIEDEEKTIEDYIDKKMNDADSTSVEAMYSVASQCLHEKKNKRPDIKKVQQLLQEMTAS
Experimental: For the measurement of the activity of the human IRAK-4 (Invitrogen, Cat. PV3362), phosphorylation of the IRAK-4 peptide substrate (biotin-KKKKRFSFKKSFKC) by the enzyme in the presence of 10 μM ATP (Sigma-Aldrich, Cat. A7699) was measured by the TR-FRET method. The enzymatic reaction was performed in a reaction buffer containing 50 mM HEPES (pH 7.2), 1 mM DTT, 0.1 mM Na3VO4, 5 mM MgCl2, 1 mM MnCl2, and 0.1% bovine serum albumin. For the measurement of the IRAK-4 inhibitory activity, a test compound was added to the reaction buffer containing 1 nM IRAK-4, 0.5 μM peptide substrate, and 10 μM ATP, and the mixture was incubated at 23° C. for 30 minutes. Then, a detection solution containing an antibody labeled with europium cryptate (0.3 μg/mL, the antibody was prepared by using the IRAK-4 peptide substrate as the antigen), streptavidin-XL665 (2 μg/mL, CisBio, Cat. 610SAXLB), 50 mM HEPES (pH 7.2), 0.1% BSA, 120 mM KF, and 66.7 mM EDTA (all the concentrations of the reagents are final concentrations) was added to terminate the reaction, and then the mixture was further incubated at 23° C. for 60 minutes. Fluorescence intensity was measured at wavelengths of 665 nm and 620 nm with a microplate reader, and the enzymatic activity was calculated as the ratio of fluorescence intensities at 665 nm and 620 nm (665 nm/620 nm).

IC50 ([1]; THP-1, 4 h) [nM] | IC50 (human IRAK-4) [nM] | SMILES | IC50 ([1]; 4 hours) [nM]
194 | 2.36 | O=C(Nc1nc2ccc(-c3cnc(CO[C@H]4CCC[C@@H]4O)nc3)cc2s1)C1CC(N2C[C@@H]3C[C@H]2CO3)C1 (stereo partly drawn) [b-02-31] | –
41 | 2.37 | CC(C)[C@H]1COCCN1C1CC(C(=O)Nc2nc3ccc(-c4cnc(CO[C@H]5CCC[C@@H]5O)nc4)cc3s2)C1 (stereo partly drawn) [b-02-32] | –
51 | 1.63 | O=C(Nc1nc2ccc(-c3cnc(CO[C@H]4CCC[C@@H]4O)nc3)cc2s1)C1CC(N2CCOCC23CCC3)C1 (stereo partly drawn) [b-02-33] | –
116 | 2.52 | CC(C)[C@@H]1COCCN1C1CC(C(=O)Nc2nc3ccc(-c4cnc(CO[C@H]5CCC[C@@H]5O)nc4)cc3s2)C1 (stereo partly drawn) [b-02-34] | –
140 | 2.52 | O=C(Nc1nc2ccc(-c3cnc(CO[C@H]4CCC[C@@H]4O)nc3)cc2s1)C1CC(N2CCOCC(F)(F)C2)C1 (stereo partly drawn) [b-02-35] | –
145 | 1.82 | CC1COCCCN1C1CC(C(=O)Nc2nc3ccc(-c4cnc(CO[C@H]5CCC[C@@H]5O)nc4)cc3s2)C1 (stereo partly drawn) [b-02-36] | –
94 | 2.22 | O=C(Nc1nc2ccc(-c3cnc(CO[C@H]4CCC[C@@H]4O)nc3)cc2s1)C1CC(N2CCOCC23CC3)C1 (stereo partly drawn) [b-02-37] | –
150 | 2.98 | CC(=O)N1CCN(C2CC(C(=O)Nc3nc4ccc(-c5cnc(CO[C@H]6CCC[C@@H]6O)nc5)cc4s3)C2)CC1 (stereo partly drawn) [b-02-38] | –
182 | 1.9 | COC[C@@H]1CCN(C2CC(C(=O)Nc3nc4ccc(-c5cnc(CO[C@H]6CCC[C@@H]6O)nc5)cc4s3)C2)C1 (stereo partly drawn) [b-02-39] | –
139 | 1.62 | O=C(Nc1nc2ccc(-c3cnc(CO[C@H]4CCC[C@@H]4O)nc3)cc2s1)C1CC(N2CC[C@H](O)C2)C1 (stereo partly drawn) [b-02-40] | –
160 | 2.86 | CN1CCN(C2CC(C(=O)Nc3nc4ccc(-c5cnc(CO[C@H]6CCC[C@@H]6O)nc5)cc4s3)C2)CC(F)(F)C1 (stereo partly drawn) [b-02-41] | –
123 | 1.93 | N#CC12CC(NC3CC(C(=O)Nc4nc5ccc(-c6cnc(CO[C@H]7CCC[C@@H]7O)nc6)cc5s4)C3)(C1)C2 (stereo partly drawn) [b-02-42] | –
123 | 3.1 | O=C(Nc1nc2ccc(-c3cnc(CO[C@H]4CCC[C@@H]4O)nc3)cc2s1)C1CC(N2CCC[C@@H]2C(F)(F)F)C1 (stereo partly drawn) [b-02-43] | –
143 | 3.93 | O=C(Nc1nc2ccc(-c3cnc(CO[C@H]4CCC[C@@H]4O)nc3)cc2s1)C1CC(N2CCC[C@H]2C(F)(F)F)C1 (stereo partly drawn) [b-02-44] | –
171 | 3.55 | CC1CC(F)(F)CN1C1CC(C(=O)Nc2nc3ccc(-c4cnc(CO[C@H]5CCC[C@@H]5O)nc4)cc3s2)C1 (stereo partly drawn) [b-02-46] | –
110 | 1.75 | O=C(Nc1nc2ccc(-c3cnc(CO[C@H]4CCC[C@@H]4O)nc3)cc2s1)C1CC(NC2CC2)C1 (stereo partly drawn) [b-02-47] | –
143 | 2.03 | O=C(Nc1nc2ccc(-c3cnc(CO[C@H]4CCC[C@@H]4O)nc3)cc2s1)C1CC(NC2CCC2)C1 (stereo partly drawn) [b-02-48] | –
119 | 2.52 | CC12CC(NC3CC(C(=O)Nc4nc5ccc(-c6cnc(CO[C@H]7CCC[C@@H]7O)nc6)cc5s4)C3)(C1)C2 (stereo partly drawn) [b-02-49] | –
144 | 1.93 | O=C(Nc1nc2ccc(-c3cnc(CO[C@H]4CCC[C@@H]4O)nc3)cc2s1)C1CC(NC2CCCC2)C1 (stereo partly drawn) [b-02-50] | –
146 | 2.17 | O=C(Nc1nc2ccc(-c3cnc(CO[C@H]4CCC[C@@H]4O)nc3)cc2s1)C1CC(N2CC[C@H](OC(F)F)C2)C1 (stereo partly drawn) [b-02-51] | –
172 | 2.59 | CN(CC(F)F)C1CC(C(=O)Nc2nc3ccc(-c4cnc(CO[C@H]5CCC[C@@H]5O)nc4)cc3s2)C1 (stereo partly drawn) [b-02-53] | –

IC50 ([1]; THP-1, 4 h) [nM] | IC50 (human IRAK-4) [nM] | SMILES | IC50 ([1]; 4 hours) [nM]
135 | 3.46 | O=C(Nc1nc2ccc(-c3cnc(CO[C@H]4CCC[C@@H]4O)nc3)cc2s1)C1CC(N2CCOC[C@@H]2C(F)(F)F)C1 (stereo partly drawn) [b-02-54] | –
150 | 2.97 | O=C(Nc1nc2ccc(-c3cnc(CO[C@H]4CCC[C@@H]4O)nc3)cc2s1)C1CC(N2CCOC[C@H]2C(F)(F)F)C1 (stereo partly drawn) [b-02-55] | –
109 | 1.76 | O=C(Nc1nc2ccc(-c3cnc(CO[C@H]4CCC[C@@H]4O)nc3)cc2s1)C1CC(NC2(C(F)F)CC2)C1 (stereo partly drawn) [b-02-56] | –
119 | 2.62 | O=C(Nc1nc2ccc(-c3cnc(CO[C@H]4CCC[C@@H]4O)nc3)cc2s1)C1CC(NC2(C(F)(F)F)CC2)C1 (stereo partly drawn) [b-02-57] | –
133 | 2.7 | O=C(Nc1nc2ccc(-c3cnc(CO[C@H]4CCC[C@@H]4O)nc3)cc2s1)C1CC(N[C@@H]2C[C@H]2C(F)(F)F)C1 (stereo partly drawn) [b-02-58] | –
105 | 1.51 | N#CC1(NC2CC(C(=O)Nc3nc4ccc(-c5cnc(CO[C@H]6CCC[C@@H]6O)nc5)cc4s3)C2)CC1 (stereo partly drawn) [b-02-59] | –
158 | 4.27 | O=C(Nc1nc2ccc(-c3cnc(CO[C@H]4CCC[C@@H]4O)nc3)cc2s1)C1CC(NC23CC(C(F)(F)F)(C2)C3)C1 (stereo partly drawn) [b-02-60] | –
109 | 3.87 | O=C(Nc1nc2ccc(-c3cnc(CO[C@H]4CCC[C@@H]4O)nc3)cc2s1)C1CC(N2CCOC(C(F)(F)F)C2)C1 (stereo partly drawn) [b-02-61] | –
141 | 1.38 | O=C(Nc1nc2ccc(-c3cnc(CO[C@H]4CCC[C@@H]4O)nc3)cc2s1)C1CC(N2CC[C@@H](OC(F)F)C2)C1 (stereo partly drawn) [b-02-62] | –
159 | 2.39 | O=C(Nc1nc2ccc(-c3cnc(CO[C@H]4CCC[C@@H]4O)nc3)cc2s1)C1CC(N2CCOC3(CCC3)C2)C1 (stereo partly drawn) [b-02-63] | –
163 | 2.38 | Cn1cc(NC2CC(C(=O)Nc3nc4ccc(-c5cnc(CO[C@H]6CCC[C@@H]6O)nc5)cc4s3)C2)cn1 (stereo partly drawn) [b-02-65] | –
227 | 5 | O=C(Nc1nc2ccc(-c3cnc(CO[C@H]4CCC[C@@H]4O)nc3)cc2s1)C1CC(N2CCc3ccccc32)C1 (stereo partly drawn) [b-02-66] | –
91 | 2.36 | CC(C)C[C@H]1COCCN1C1CC(C(=O)Nc2nc3ccc(-c4cnc(CO[C@H]5CCC[C@@H]5O)nc4)cc3s2)C1 (stereo partly drawn) [b-02-67] | –
160 | 2.18 | O=C(Nc1nc2ccc(-c3cnc(CO[C@H]4CCC[C@@H]4O)nc3)cc2s1)C1CC(N2CCOCC2C2CC2)C1 (stereo partly drawn) [b-02-68] | –
80 | 1.81 | O=C(Nc1nc2ccc(-c3cnc(CO[C@H]4CCC[C@@H]4O)nc3)cc2s1)C1CC(N2CCO[C@@H]3CCC[C@@H]32)C1 (stereo partly drawn) [b-02-69] | –
90 | 2.94 | CC1(C)CN(C2CC(C(=O)Nc3nc4ccc(-c5cnc(CO[C@H]6CCC[C@@H]6O)nc5)cc4s3)C2)[C@@H]2CCC[C@H]2O1 (stereo partly drawn) [b-02-70] | –
105 | 2.36 | O=C(Nc1nc2ccc(-c3cnc(CO[C@H]4CCC[C@@H]4O)nc3)cc2s1)C1CC(N2CCOCC2CC2CC2)C1 (stereo partly drawn) [b-02-71] | –
162 | 1.47 | CN(CCO)C1CC(C(=O)Nc2nc3ccc(-c4cnc(CO[C@H]5CCC[C@@H]5O)nc4)cc3s2)C1 (stereo partly drawn) [b-02-72] | –
189 | 1.57 | O=C(Nc1nc2ccc(-c3cnc(CO[C@H]4CCC[C@@H]4O)nc3)cc2s1)C1CC(N2CCC3(CC2)COC3)C1 (stereo partly drawn) [b-02-74] | –
99 | 1.55 | O=C(Nc1nc2ccc(-c3cnc(CO[C@H]4CCC[C@@H]4O)nc3)cc2s1)C1CC(NC2C3CC2C3)C1 (stereo partly drawn) [b-02-76] | –

SMILES | IC50 ([1]; THP-1, 4 h) [nM] | IC50 (human IRAK-4) [nM] | IC50 ([1]; 4 hours) [nM]
O=C(Nc1nc2ccc(-c3cnc(CO[C@H]4CCC[C@@H]4O)nc3)cc2s1)C1CC(NCC(F)F)C1 (stereo partly drawn) [b-02-52] | – | 2.6 | 176
